Data from patent US9023878B2 (Neurophyxia B.V., priority 2010, dated 2015).
Where “and” joins values, the source holds several entries; their conditions need not be identical. Equal values may be shown once.

Experiments:
[1] = Solubility of 2-IB in water at different pH; format: physicochemical
[2] = Surfactants: stepwise solubility in surfactant solutions in 5% dextrose; format: physicochemical; details: nominal 1.6 mg/ml, without addition of acid
Description: Stock solutions of the surfactant were prepared in 5% dextrose.

[3] = Solubility of 2-IB (5 mg/ml) using different acids; format: physicochemical
[4] = Solubility in citrate buffers (excess 2-IB, filtered, RP-HPLC); format: physicochemical
Description: An excess of 2-IB was added to citrate buffers, mixed at room temperature and then filtered to remove nonsolubilised 2-IB.

[5] = Visual inspection after 12 hours storage at 5° C.; format: physicochemical
[6] = Solubility of 2-IB in 10% SBE-CD at different pH adjusted with 0.1 M citric acid (HPLC); format: physicochemical
Description: The experimental steps are shown as below.
1. Weigh 0.5 g of SBE-CD into 10 ml glass vial
2. Add 3 ml WFI into each vial to dissolve SBE-CD
4. Magnetic stirring for 1 h
5. Adjust pH to target pH with 0.1 M citric acid
6. Determine the weight of 0.1 M citric acid added
7. Add WFI to total weight of 5 g
8. Measure pH again after 1 hour stirring
9. Filtrate through the formulation through PVDF 0.22 um filter

[7] = Physical stability of saturated 10% SBE-CD solutions, 5 days at 5° C. and RT; format: physicochemical; details: saturated solution; further: key: −: Precipitation of 2-IB; +: no precipitation
[8] = Formulation preparation: dissolution and titration to higher pH; format: physicochemical; details: 1.5 mg/g of 2-IB at pH 7.0, overnight stirring
Source text: This might be due to the different approaches for the solubility testing and the formulation preparation. […] The six formulations were all transparent and colorless solutions.
It is not feasible to increase the solubility by preparing a formulation at a low pH first and then titrate to a high pH.

[9] = Solubility of 2-IB in 10% SBE-CD at different pH adjusted with 0.1 M citric acid (HPLC); format: physicochemical; remark: listed apart in the source
[10] = Solvent selection: stepwise solvent addition, solubility judged visually
Description: Solubility of 2-IB was determined in the following solvents: • 0.9% Sodium chloride in water • 5% Dextrose in water • N,N-dimethylacetamide • N,N-dimethylformamide • Dimethyl sulfoxide • Ethanol • Propolyene glycol • Polyethyleneglycol 400 • Corn oil
Approximately 10 mg of 2-IB was weighed into a 10 ml tube. Subsequently, small aliquots (100 μl-100 μl-200 μl-400 μl-800 μl-1600 μl-3200 μl) of the respective solvents were added stepwise. After each addition, the solution was mixed intensively and visually judged for solubility.
Therefore the experiment was repeated for propylene glycol but with addition of 100 μl 1N hydrochloric acid after 200 μl propylene glycol (i.e. 10 mg 2-IB+200 μl propylene glycol+100 μl 1N hydrochloric acid).
When an acidified 2-IB formulation in 5% dextrose is prepared, the pH after acidification is approximately 2 for nominal 2-IB concentrations in the range 1-5 mg/ml.

[11] = Solubility/encapsulation in cyclodextrin solutions (excess 2-IB, three days, filtered, RP-HPLC)
Description: An excess of 2-IB was added to the cyclodextrin solutions, mixed at room temperature for three days and then filtered to remove non-encapsulated) non-solubilised 2-IB.

[12] = Novel excipients (Cremophor EL, Solutol HS 15): 2-IB content of formulations at t=0 and after 48 hours; details: for Concentration t = 0 / Concentration t = 48 h: Solutol HS 15 formulation
Description: Finally two novel excipients were tested, Cremophor EL and Solutol HS 15.
A range of 2-IB formulations were prepared that were stored for 48 hours and measured for 2-IB content:

[13] = 960 mg/kg/24 h 2-IB in 5% Solutol, continuous iv infusion
[14] = nominal 5.0 mg/ml, pH 2.4, after filtration
[15] = nominal 5.0 mg/ml, pH 2.8, after filtration
[16] = nominal 5.0 mg/ml, pH 3.0, after filtration
[17] = nominal 5.0 mg/ml, pH 3.5, after filtration
[18] = nominal 5.0 mg/ml, pH 3.6, after filtration
[19] = nominal 5.0 mg/ml, pH 3.8, after filtration
[20] = nominal 5.0 mg/ml, pH 10.2, after filtration
[21] = nominal 10 mg/ml, pH 3.0, after filtration
[22] = nominal 10 mg/ml, pH 3.5, after filtration
[23] = nominal 20 mg/ml, pH 3.0, after filtration
[24] = nominal 20 mg/ml, pH 3.5, after filtration

Description for Wistar rats: Group I: Vehicle 20% Solutol (Continuous Intravenous Infusion)
Animals received a continuous infusion of vehicle only (20% Solutol in 5% dextrose) at a dose volume of 4 mL/kg/h for 24 hours.
Group II: Vehicle 5% Solutol (Continuous Intravenous Infusion)
Animals received a continuous infusion of vehicle only (5% Solutol in 5% dextrose) at a dose volume of 4 mL/kg/h for approximately 96 hours.
Group III: 960 mg/kg/24 h of 2-IBin 5% Solutol (Continuous Intravenous Infusion).

N=C1N[C@H]2[C@H](CS[C@H]2CCCCC(=O)O)N1 [Formulation 2-IB, 2-iminobiotin]
solubility in water ([1]; pH 3.5): around 4.5 mg/ml | solubility in water ([1]; pH 5): around 0.59 mg/ml | solubility in water ([1]; pH 7.4): around 0.34 mg/ml | solubility, visually judged [2]: did not dissolve in any of the surfactant solutions | pH at which solubility was achieved ([3]; HCl): 3.0 | pH at which solubility was achieved ([3]; weak acids (acetic acid and citric acid)): 3.3 | Conc. 2IB ([4]; 50 mM Citrate pH 3.0, final pH 3.07, room temperature): 11000 µg/mL and 11270 µg/mL | Conc. 2IB ([4]; 50 mM Citrate pH 3.5, final pH 3.52): 4450 µg/mL | Conc. 2IB ([4]; 50 mM Citrate pH 4.0, final pH 4.03): 1720 µg/mL | Conc. 2IB ([4]; 50 mM Citrate pH 4.5, final pH 4.54): 860 µg/mL | Conc. 2IB ([4]; 50 mM Citrate pH 5.0, final pH 5.02): 590 µg/mL | Appearance after 12 hours at 5° C. ([5]; saturated in 50 mM Citrate pH 3.0): Precipitated | Appearance after 12 hours at 5° C. ([5]; saturated in 50 mM Citrate pH 3.5): Precipitated | Appearance after 12 hours at 5° C. ([5]; saturated in 50 mM Citrate pH 4.0): Precipitated | Appearance after 12 hours at 5° C. ([5]; saturated in 50 mM Citrate pH 4.5): Precipitated | Appearance after 12 hours at 5° C. ([5]; saturated in 50 mM Citrate pH 5.0): Precipitated | Solubility of 2-IB ([6]; pH 4.0): 13.08 mg/g | Solubility of 2-IB ([6]; pH 4.5): 9.00 mg/g | Solubility of 2-IB ([6]; pH 5.0): 5.2 mg/g and 5.21 mg/g | Solubility of 2-IB ([6]; pH 5.1): 5.30 mg/g | Solubility of 2-IB ([6]; pH 5.5): 3.29 mg/g | Solubility of 2-IB ([6]; pH 6.2): 1.94 mg/g | Solubility of 2-IB ([6]; pH 7.0): 1.71 mg/g | 5 days at 5° C. ([7]; pH 4.0): − | 5 days at RT ([7]; pH 4.0): + | 5 days at 5° C. ([7]; pH 4.5): − | 5 days at RT ([7]; pH 4.5): + | 5 days at 5° C. ([7]; pH 5.0): − | 5 days at RT ([7]; pH 5.0): + | 5 days at 5° C. ([7]; pH 5.1): − | 5 days at RT ([7]; pH 5.1): + | 5 days at 5° C. ([7]; pH 5.5): − | 5 days at RT ([7]; pH 5.5): + | 5 days at 5° C. ([7]; pH 6.2): − | 5 days at RT ([7]; pH 6.2): + | 5 days at 5° C. ([7]; pH 7.0): − | 5 days at RT ([7]; pH 7.0): + | dissolution on formulation preparation [8]: did not dissolve completely after overnight stirring | solubility with pH-adjustment alone ([9]; pH 4.0, without SBE-CD): 1.72 mg/g | solubility with pH-adjustment alone ([9]; pH 5.0, without SBE-CD): 0.59 mg/g | concentration of fully dissolved and stable solution ([10]; 10 mg 2-IB+200 μl propylene glycol+100 μl 1N hydrochloric acid): 33000 µg/mL | solubility, visually judged ([10]; 10 mg in 6400 μl (1.6 mg/ml) of 0.9% NaCl, 5% dextrose, DMA, DMF, DMSO, ethanol, propylene glycol, PEG 400 or corn oil): not sufficiently soluble in any of these solvents | effect of addition of water ([10]; 33 mg/ml propylene glycol/hydrochloric acid formulation): immediately resulted in precipitation of 2-IB | precipitation, visual observation ([10]; acidified 2-IB in 5% dextrose neutralized to pH 7): nearly all 2-IB has precipitated out of solution | pH up to which partial neutralization is possible before precipitation ([10]; acidified 2-IB in 5% dextrose, nominal 1-5 mg/ml, 0.1% sodium hydroxide): 3-3.5 | solubility, visually judged ([10]; same solvents after addition of 100 μl of 1N hydrochloric acid): fully dissolved in all solvents | bilirubin levels (Wistar rats; [13]): within the normal range | body weights (Wistar rats; [13]): increased for two animals | clinical chemistry at the end of treatment (Wistar rats; [13]): slight to moderate increase in aspartate aminotransferase (1/2), alkaline phosphatase (1/2), and glucose (2/2) | creatinine and urine at the end of treatment (Wistar rats; [13]): high values for creatinine and urine (1/2) | macroscopic findings at necropsy (Wistar rats; [13]): oedema (2/3), pelvic dilation of the kidneys (2/3), enlarged liver (1/3), enlarged iliac lymph node (113), dark spots on the lungs (1/3), and fibrin-like coating in or around the femoral vein | clinical signs (Wistar rats; 960 mg/kg/24 h 2-IB in 5% Solutol, continuous iv infusion, Days 2-3): hunched posture, piloerection and pallor | mortality (Wistar rats; 960 mg/kg/24 h 2-IB in 5% Solutol/5% dextrose, continuous iv infusion 4 mL/kg/h, terminated after 46 hours): One animal died after 46 hours of infusion | concentration of 2-IB ([11]; 0% cyclodextrin, Citrate pH 4.0, final pH 4.0): 1700 µg/mL | concentration of 2-IB ([11]; 0% cyclodextrin, Citrate pH 5.0, final pH 5.0): 600 µg/mL | concentration of 2-IB ([11]; 0% cyclodextrin, WFI, final pH 6.5): 400 µg/mL | concentration of 2-IB ([11]; 2.5% HP-CD, Citrate pH 4.0, final pH 4.2): 2500 µg/mL | concentration of 2-IB ([11]; 2.5% HP-CD, Citrate pH 5.0, final pH 5.1): 900 µg/mL | concentration of 2-IB ([11]; 2.5% HP-CD, WFI, final pH 6.5): 500 µg/mL | concentration of 2-IB ([11]; 2.5% SBE-CD, Citrate pH 4.0, final pH 4.3): 3700 µg/mL | concentration of 2-IB ([11]; 2.5% SBE-CD, Citrate pH 5.0, final pH 5.0): 1900 µg/mL | concentration of 2-IB ([11]; 2.5% SBE-CD, WFI, final pH 6.3): 700 µg/mL | concentration of 2-IB ([11]; 5% HP-CD, Citrate pH 4.0, final pH 4.3): 3000 µg/mL | concentration of 2-IB ([11]; 5% HP-CD, Citrate pH 5.0, final pH 5.1): 1200 µg/mL | concentration of 2-IB ([11]; 5% HP-CD, WFI, final pH 6.5): 500 µg/mL | concentration of 2-IB ([11]; 5% SBE-CD, Citrate pH 4.0, final pH 4.4): 5500 µg/mL | concentration of 2-IB ([11]; 5% SBE-CD, Citrate pH 5.0, final pH 5.1): 2900 µg/mL | concentration of 2-IB ([11]; 5% SBE-CD, WFI, final pH 6.5): 1000 µg/mL | concentration of 2-IB ([11]; 10% HP-CD, Citrate pH 4.0, final pH 4.5): 4100 µg/mL | concentration of 2-IB ([11]; 10% HP-CD, Citrate pH 5.0, final pH 5.2): 1600 µg/mL | concentration of 2-IB ([11]; 10% HP-CD, WFI, final pH 6.5): 600 µg/mL | concentration of 2-IB ([11]; 10% SBE-CD, Citrate pH 4.0, final pH 4.6): 8000 µg/mL | concentration of 2-IB ([11]; 10% SBE-CD, Citrate pH 5.0, final pH 5.1): 4600 µg/mL | concentration of 2-IB ([11]; 10% SBE-CD, WFI, final pH 6.5): 1500 µg/mL | concentration of 2-IB ([11]; 20% HP-CD, Citrate pH 4.0, final pH 4.7): 5100 µg/mL | concentration of 2-IB ([11]; 20% HP-CD, Citrate pH 5.0, final pH 5.3): 2100 µg/mL | concentration of 2-IB ([11]; 20% HP-CD, WFI, final pH 6.6): 900 µg/mL | concentration of 2-IB ([11]; 20% SBE-CD, Citrate pH 4.0, final pH 4.9): 11400 µg/mL | concentration of 2-IB ([11]; 20% SBE-CD, Citrate pH 5.0, final pH 5.3): 7000 µg/mL | concentration of 2-IB ([11]; 20% SBE-CD, WFI, final pH 6.7): 2400 µg/mL | concentration of 2-IB ([11]; 40% HP-CD, Citrate pH 4.0, final pH 5.0): 5600 µg/mL | concentration of 2-IB ([11]; 40% HP-CD, Citrate pH 5.0, final pH 5.6): 2600 µg/mL | concentration of 2-IB ([11]; 40% HP-CD, WFI, final pH 6.7): 1200 µg/mL | Solutol HS 15 concentration giving optimal solubility ([12]; 5-10-15-20-25% Solutol HS 15 tested at approximately 5 mg/ml): 20% | pH at which the formulation could be prepared ([12]; 20% Solutol HS 15 and 5% Dextrose in water): 3.5-3.6 | Concentration t = 0 [12, 14]: 5650 µg/mL | Concentration t = 48 h [12, 14]: 4780 µg/mL | Concentration t = 0 [12, 15]: 5430 µg/mL | Concentration t = 48 h [12, 15]: 5450 µg/mL | Concentration t = 0 [12, 16]: 4640 µg/mL | Concentration t = 48 h [12, 16]: 4870 µg/mL | Concentration t = 0 [12, 17]: 5210 µg/mL | Concentration t = 48 h [12, 17]: 4940 µg/mL | Concentration t = 0 [12, 18]: 4520 µg/mL | Concentration t = 48 h [12, 18]: 3930 µg/mL | Concentration t = 0 [12, 19]: 5100 µg/mL | Concentration t = 48 h [12, 19]: 2620 µg/mL | Concentration t = 0 [12, 20]: 5710 µg/mL | Concentration t = 48 h [12, 20]: 0 µg/mL | Concentration t = 0 [12, 21]: 9060 µg/mL | Concentration t = 48 h [12, 21]: 8640 µg/mL | Concentration t = 0 [12, 22]: 8300 µg/mL | Concentration t = 48 h [12, 22]: 8040 µg/mL | Concentration t = 0 [12, 23]: 16600 µg/mL | Concentration t = 48 h [12, 23]: 16700 µg/mL | Concentration t = 0 [12, 24]: 14700 µg/mL | Concentration t = 48 h [12, 24]: 13200 µg/mL
